“And” between values parts separate entries of the source, which are not always exact repeats. Identical values can stand only once. Inconclusive results and toxic doses are left out.
System: BDF1 mice, P388 leukemia ip, median survival T/C
Assay: NCI In Vivo Anticancer Drug Screen. Data for tumor model P388 Leukemia (intraperitoneal) in B6D2F1 (BDF1) mice
Conditions: endpoint: median survival time, higher = longer survival
How it was run: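 Transplantable tumour in mice; compound vs vehicle dosing; survival scored; ratio of treated to control reported.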

[1] = dose: 0.08 mg/kg/injection, schedule: Q01DX009 (ip), vehicle: saline
[2] = dose: 100.0 mg/kg/injection, schedule: Q04DX003 (ip), vehicle: saline with Tween-80
[3] = dose: 100.0 mg/kg/injection, schedule: Q01DX009 (ip), vehicle: saline with Tween-80
[4] = dose: 200.0 mg/kg/injection, schedule: Q01DX009 (ip), vehicle: saline with Tween-80
[5] = dose: 200.0 mg/kg/injection, schedule: Q04DX003 (ip), vehicle: saline with Tween-80
[6] = dose: 400.0 mg/kg/injection, schedule: Q01DX009 (ip), vehicle: saline with Tween-80
[7] = dose: 400.0 mg/kg/injection, schedule: Q04DX003 (ip), vehicle: saline with Tween-80
[8] = dose: 100.0 mg/kg/injection, schedule: Q01DX009 (ip), vehicle: saline
[9] = dose: 200.0 mg/kg/injection, schedule: Q01DX009 (ip), vehicle: saline

NC(=O)c1ccc(NC(=O)/C=C/C(=O)Nc2ccc(C(N)=O)cn2)nc1
T/C [1]: 115 % of control | T/C (dose: 0.17 mg/kg/injection, schedule: Q01DX009 (ip), vehicle: saline): 120 % of control | T/C (dose: 0.35 mg/kg/injection, schedule: Q01DX009 (ip), vehicle: saline): 105 % of control | T/C (dose: 0.7 mg/kg/injection, schedule: Q01DX009 (ip), vehicle: saline): 103 % of control | T/C (dose: 1.4 mg/kg/injection, schedule: Q01DX009 (ip), vehicle: saline): 107 % of control | T/C (dose: 1.65 mg/kg/injection, schedule: Q01DX009 (ip), vehicle: saline with Tween-80): 113 % of control | T/C (dose: 2.5 mg/kg/injection, schedule: Q01DX009 (ip), vehicle: saline with Tween-80): 117 % of control | T/C (dose: 3.75 mg/kg/injection, schedule: Q01DX009 (ip), vehicle: saline with Tween-80): 94 % of control | T/C (dose: 4.5 mg/kg/injection, schedule: Q04DX003 (ip), vehicle: saline): 86 % of control | T/C (dose: 5.62 mg/kg/injection, schedule: Q01DX009 (ip), vehicle: saline): 104 % of control | T/C (dose: 9.0 mg/kg/injection, schedule: Q04DX003 (ip), vehicle: saline): 108 % of control | T/C (dose: 18.0 mg/kg/injection, schedule: Q04DX003 (ip), vehicle: saline): 100 % of control | T/C (dose: 26.0 mg/kg/injection, schedule: Q04DX003 (ip), vehicle: saline): 112 % of control | T/C (dose: 40.0 mg/kg/injection, schedule: Q04DX003 (ip), vehicle: saline): 108 % of control

CCCCN(CCC#N)CCCC
T/C (dose: 25.0 mg/kg/injection, schedule: Q04DX003 (ip), vehicle: saline with Tween-80): 100 % of control | T/C (dose: 50.0 mg/kg/injection, schedule: Q04DX003 (ip), vehicle: saline with Tween-80): 100 % of control | T/C [2]: 100 % of control

O=C1C(N2CC2)=C(N2CC2)C(=O)C(N2CC2)=C1N1CC1
T/C (dose: 0.02 mg/kg/injection, schedule: Q01DX009 (ip), vehicle: saline): 232 % of control and 307 % of control | T/C (dose: 0.04 mg/kg/injection, schedule: Q01DX009 (ip), vehicle: saline): 201 % of control | T/C (dose: 0.04 mg/kg/injection, schedule: Q04DX003 (ip), vehicle: saline with Tween-80): 114 % of control | T/C (dose: 0.06 mg/kg/injection, schedule: Q04DX003 (ip), vehicle: saline with Tween-80): 118 % of control | T/C (dose: 0.07 mg/kg/injection, schedule: Q04DX003 (ip), vehicle: saline with Tween-80): 109 % of control | T/C [1]: 109 % of control | T/C (dose: 0.11 mg/kg/injection, schedule: Q04DX003 (ip), vehicle: other): 200 % of control | T/C (dose: 0.15 mg/kg/injection, schedule: Q04DX003 (ip), vehicle: saline with Tween-80): 185 % of control | T/C (dose: 0.25 mg/kg/injection, schedule: Q04DX003 (ip), vehicle: other): 186 % of control | T/C (dose: 0.25 mg/kg/injection, schedule: Q04DX003 (ip), vehicle: saline with Tween-80): 163 % of control | T/C (dose: 6.6 micrograms/kg/injection, schedule: Q01DX009 (ip), vehicle: saline with Tween-80): 150 % of control | T/C (dose: 10.0 micrograms/kg/injection, schedule: Q01DX009 (ip), vehicle: saline with Tween-80): 175 % of control | T/C (dose: 20.0 micrograms/kg/injection, schedule: Q01DX009 (ip), vehicle: saline with Tween-80): 164 % of control | T/C (dose: 30.0 micrograms/kg/injection, schedule: Q01DX009 (ip), vehicle: saline with Tween-80): 164 % of control | T/C (dose: 31.3 micrograms/kg/injection, schedule: Q01DX009 (ip), vehicle: saline with Tween-80): 156 % of control | T/C (dose: 45.0 micrograms/kg/injection, schedule: Q01DX009 (ip), vehicle: saline with Tween-80): 268 % of control | T/C (dose: 62.5 micrograms/kg/injection, schedule: Q01DX009 (ip), vehicle: saline with Tween-80): 87 % of control | T/C (dose: 125.0 micrograms/kg/injection, schedule: Q01DX009 (ip), vehicle: saline with Tween-80): 86 % of control

Nc1n[nH]c(N)n1.[Ni]
T/C [3]: 100 % of control | T/C [2]: 91 % of control | T/C [4]: 95 % of control and 115 % of control | T/C [5]: 87 % of control | T/C [6]: 109 % of control | T/C [7]: 100 % of control

CC(Br)C(=O)NCC(=O)NCC(=O)O (stereo unspecified)
T/C [8]: 108 % of control | T/C (dose: 100.0 mg/kg/injection, schedule: Q04DX003 (ip), vehicle: saline): 108 % of control | T/C [9]: 91 % of control | T/C (dose: 200.0 mg/kg/injection, schedule: Q04DX003 (ip), vehicle: saline): 91 % of control | T/C (dose: 400.0 mg/kg/injection, schedule: Q04DX003 (ip), vehicle: saline): 87 % of control

O=C(O)CP(=O)(O)O
T/C (dose: 250.0 mg/kg/injection, schedule: Q03HX024 (ip), vehicle: saline): 120 % of control

NC(=O)OCCCCCl
T/C (dose: 50.0 mg/kg/injection, schedule: Q01DX009 (ip), vehicle: saline): 110 % of control | T/C [8]: 107 % of control | T/C [9]: 100 % of control

CN(C)[C@@H]1C(=O)C(C(N)=O)=C(O)[C@@]2(O)C(=O)C3=C(O)c4c(O)cccc4C[C@H]3C[C@@H]12
T/C (dose: 3.75 mg/kg/injection, schedule: Q01DX010 (ip), vehicle: water): 100 % of control | T/C (dose: 7.5 mg/kg/injection, schedule: Q01DX010 (ip), vehicle: saline): 120 % of control | T/C (dose: 7.5 mg/kg/injection, schedule: Q01DX010 (ip), vehicle: water): 118 % of control | T/C (dose: 15.0 mg/kg/injection, schedule: Q01DX010 (ip), vehicle: saline): 120 % of control | T/C (dose: 20.0 mg/kg/injection, schedule: Q01DX010 (oral), vehicle: water): 109 % of control | T/C (dose: 35.0 mg/kg/injection, schedule: Q01DX010 (oral), vehicle: water): 100 % of control | T/C (dose: 50.0 mg/kg/injection, schedule: Q01DX010 (oral), vehicle: water): 100 % of control | T/C (dose: 60.0 mg/kg/injection, schedule: Q01DX010 (ip), vehicle: saline): 100 % of control | T/C (dose: 65.0 mg/kg/injection, schedule: Q01DX010 (oral), vehicle: water): 109 % of control | T/C (dose: 80.0 mg/kg/injection, schedule: Q01DX010 (oral), vehicle: water): 90 % of control

CCOC(=O)C(Cc1ccc(C)cc1)(NC(C)=O)C(=O)OCC
T/C [3]: 92 % of control | T/C [4]: 99 % of control | T/C [6]: 101 % of control

CCOc1ccc(/C=N/Nc2ccc([N+](=O)[O-])cc2)cc1OC
T/C [3]: 100 % of control | T/C [4]: 115 % of control | T/C [6]: 115 % of control

CCOC(=O)c1ccc(NCc2cccc([N+](=O)[O-])c2)cc1
T/C (dose: 100.0 mg/kg/injection, schedule: Q01DX001 (ip), vehicle: Klucel (hydroxypropylcellulose) (HPC)): 115 % of control | T/C (dose: 200.0 mg/kg/injection, schedule: Q01DX001 (ip), vehicle: Klucel (hydroxypropylcellulose) (HPC)): 100 % of control | T/C (dose: 400.0 mg/kg/injection, schedule: Q01DX001 (ip), vehicle: Klucel (hydroxypropylcellulose) (HPC)): 93 % of control

O=NN(CCCl)C(=O)Nc1ccc(CCCl)cc1
T/C (dose: 37.5 mg/kg/injection, schedule: Q01DX009 (ip), vehicle: other): 90 % of control | T/C (dose: 37.5 mg/kg/injection, schedule: Q04DX003 (ip), vehicle: other): 120 % of control | T/C (dose: 66.0 mg/kg/injection, schedule: Q04DX003 (ip), vehicle: other): 90 % of control | T/C (dose: 75.0 mg/kg/injection, schedule: Q01DX009 (ip), vehicle: other): 100 % of control | T/C (dose: 75.0 mg/kg/injection, schedule: Q04DX003 (ip), vehicle: other): 120 % of control | T/C (dose: 99.0 mg/kg/injection, schedule: Q04DX003 (ip), vehicle: other): 95 % of control | T/C (dose: 150.0 mg/kg/injection, schedule: Q01DX009 (ip), vehicle: other): 105 % of control | T/C (dose: 150.0 mg/kg/injection, schedule: Q04DX003 (ip), vehicle: other): 255 % of control and 95 % of control | T/C (dose: 225.0 mg/kg/injection, schedule: Q04DX003 (ip), vehicle: other): 100 % of control

Cc1nc([N+](=O)[O-])cn1CC/C(N)=N/O
T/C [2]: 108 % of control | T/C [5]: 105 % of control | T/C [7]: 115 % of control

CC(=O)Nc1ccc(SSSc2ccc(NC(C)=O)cc2)cc1
T/C (dose: 12.5 mg/kg/injection, schedule: Q01DX009 (ip), vehicle: water): 100 % of control | T/C (dose: 25.0 mg/kg/injection, schedule: Q01DX009 (ip), vehicle: water): 96 % of control | T/C (dose: 50.0 mg/kg/injection, schedule: Q01DX009 (ip), vehicle: water): 101 % of control | T/C (dose: 100.0 mg/kg/injection, schedule: Q01DX009 (ip), vehicle: water): 105 % of control | T/C (dose: 200.0 mg/kg/injection, schedule: Q01DX009 (ip), vehicle: water): 111 % of control and 118 % of control
